Assay results: patent US10253274B2, “Compounds and methods for inhibiting corrosion in hydrocarbon processing units” (General Electric Company, priority 2012, dated 2019)
Where two headings read alike, the source gives them in different places.

Key:
[1] = Neutralization efficiency by two-phase titration (pH at amine titrant concentration); assay type: physicochemical; conditions: 100° C.; for Neutral. Efficiency pH at 250 ppm: 250 ppm amine titrant; for Neutral. Efficiency pH at 500 ppm: 500 ppm amine titrant; for Neutral. Efficiency pH at 1000 ppm: 1000 ppm amine titrant
Experimental: Several amines were tested to determine their efficiencies in neutralizing acidic species and reducing deposits of hydrochloride and amine salts. The neutralization efficiency of these amines was tested using two-phase titration. For each amine tested, a titrand (100 ml) was placed in a flask. The titrand was designed to simulate an initial condensate and comprised 90 vol % naphtha and 10 vol % acidic water. The titrand was heated to 100° C. and maintained at that temperature while amine titrant was added to the flask.
A second set of tests were performed using some of the effective amines above. Additional tertiary amines were also tested and found to be effective. The additional tertiary amines were N-methyl piperidine, 2-dimethylamino 2-methyl 1-propanol (“DMAMP”) in an azeotropic solution comprising 80 wt % amine, N,N,N′,N′-tetramethyldiamino methane (“TMMD”), dimethyl tertiary butanolamine (“DMTBA”), and dimethyl methoxypropylamine (“DMMOPA”). The neutralization efficiency of these amines was tested using two-phase titration. For each amine tested, a titrand (100 ml) was placed in a flask. The titrand was designed to simulate an initial condensate and comprised 90 vol % naphtha and 10 vol % acidic water. The titrand was heated to 100° C. and maintained at that temperature while amine titrant was added to the flask. The tests were repeated 3 times in the second set of tests. The data in Table 2 are the averages of the 3 repeated tests.

[2] = Amine-HCl salt precipitation potential index (Salt PPI) relative to ammonia salt; assay type: physicochemical
Excerpt: Without limiting this specification to any particular theory of operation, the overall efficiency of a given amine may be predicted upon assessment of several factors. One such factor is the amine-HCl salt precipitation potential index (“Salt PPI”). The Salt PPI may also be known by those in the art as the salt volatility index. These indices are merely a comparison of the precipitation potential of the amine salt to the salt of a typical neutralizing compound used in hydrocarbon refining, ammonia.
Salt PPI may be calculated from the equation: […]
If one were to substitute the vapor pressure of ammonia for the vapor pressure of the amine in the equation, the Salt PPI would be 1.0. Effective amines are those that are as good, if not better than the typical additive, ammonia. Thus, effective amines would have a Salt PPI of equal to or less than 1.0. Other neutralizers commonly used in hydrocarbon refining are trimethylamine and N-methylmorpholine.

pKa of the amine = assay type: physicochemical
Excerpt: Another factor indicative of the overall efficiency of a given amine is the logarithm of the acid dissociation constant, pKa. Generally, amines with higher pKa values are more efficient neutralizers. Accordingly, in another embodiment, the treatment composition may comprise an amine with a pKa equal to or greater than about 5.0.

Boiling point = conditions: Table 2
[3] = Table 2, second set, averages of 3 repeated tests
[4] = Table 2, average over 225 to 300° F., ammonia benchmark = 1.0
[5] = Table 1, average over 225 to 300° F., ammonia benchmark = 1.0
[6] = Table 3, exemplary treatment composition
[7] = Table 4, exemplary treatment composition

CN1CCCCC1 [N-methyl piperidine]
Neutral. Efficiency pH at 250 ppm [1, 3]: 2.1
Neutral. Efficiency pH at 500 ppm [1, 3]: 7.5
Neutral. Efficiency pH at 1000 ppm [1, 3]: 8.1
Salt PPI [2, 4]: 0.24
pKa (pKa of the amine; Table 2, read-out: pKa): 10.1
Boiling Point (Boiling point): 107 °C
Solubility Oil/Water (Solubility Oil/Water; Table 2): Water

CN(C)C(C)(C)CO [2-Dimethylamino 2-methyl 2-propanol (DMAMP) 80% azeotrope so] [2-dimethylamino 2-methyl 1-propanol]
Neutral. Efficiency pH at 250 ppm [1, 3]: 2.3
Neutral. Efficiency pH at 500 ppm [1, 3]: 6.3
Neutral. Efficiency pH at 1000 ppm [1, 3]: 9.5
Salt PPI [2, 4]: 0.27
Boiling Point (Boiling point): 98 °C
Solubility Oil/Water (Solubility Oil/Water; Table 2): Water

CC(C)C(C)N (stereo not drawn) [1,2 Dimethyl propyl amine, 1,2 dimethylpropylamine]
Neutral. Efficiency pH at 250 ppm ([1]; Table 1, first set of tests): 1.4
Neutral. Efficiency pH at 500 ppm ([1]; Table 1, first set of tests): 8.5
Neutral. Efficiency pH at 1000 ppm ([1]; Table 1, first set of tests): 9.6
Neutral. Efficiency pH at 250 ppm [1, 3]: 1.4
Neutral. Efficiency pH at 500 ppm [1, 3]: 8.5
Neutral. Efficiency pH at 1000 ppm [1, 3]: 9.6
Salt PPI [2, 5]: <0.1
Salt PPI [2, 4]: 0.30
pKa (pKa of the amine; Table 1, read-out: pKa): 9.9
Boiling Point (Boiling point): 87 °C
Solubility Oil/Water (Solubility Oil/Water; Table 1): Water
Solubility Oil/Water (Solubility Oil/Water; Table 2): Water

CCCNCCC [di-N-propyl amine, di-N-propylamine]
Neutral. Efficiency pH at 250 ppm ([1]; Table 1, first set of tests): 2.2
Neutral. Efficiency pH at 500 ppm ([1]; Table 1, first set of tests): 3.0
Neutral. Efficiency pH at 1000 ppm ([1]; Table 1, first set of tests): 7.6
Salt PPI [2, 5]: 0.24
pKa (pKa of the amine; Table 1): 10.91

CN1CCCC1 [N-methylpyrrolidine]
Neutral. Efficiency pH at 250 ppm ([1]; Table 1, first set of tests): 2.2
Neutral. Efficiency pH at 500 ppm ([1]; Table 1, first set of tests): 6.8
Neutral. Efficiency pH at 1000 ppm ([1]; Table 1, first set of tests): 8.1
Neutral. Efficiency pH at 250 ppm [1, 3]: 2.2
Neutral. Efficiency pH at 500 ppm [1, 3]: 6.8
Neutral. Efficiency pH at 1000 ppm [1, 3]: 8.1
Salt PPI [2, 5]: <0.1
Salt PPI [2, 4]: 0.10
pKa (pKa of the amine; Table 1, read-out: pKa): 10.3
Boiling Point (Boiling point): 81 °C
Solubility Oil/Water (Solubility Oil/Water; Table 1): Water
Solubility Oil/Water (Solubility Oil/Water; Table 2): Water
Solubility Oil/Water (Solubility Oil/Water; [6]): Water
Solubility Oil/Water (Solubility Oil/Water; [7]): Water

CN(C)C(C)(C)CO [Dimethyl tertiarybutanolamine (DMTBA), dimethyl tertiary butanolamine]
Salt PPI [2, 4]: 0.32
pKa (pKa of the amine; Table 2): 8.9
Boiling Point (Boiling point): 150 °C
Solubility Oil/Water (Solubility Oil/Water; Table 2): Water

COCCCN(C)C [Dimethyl methoxypropyl-amine (DMMOPA), dimethyl methoxypropylamine]
Salt PPI [2, 4]: 0.20
Boiling Point (Boiling point): 124 °C
Solubility Oil/Water (Solubility Oil/Water; Table 2): Water

C#CCN(CC)CC [Diethylpropargylamine, diethylpropargylamine]
Neutral. Efficiency pH at 250 ppm ([1]; Table 1, first set of tests): 2.2
Neutral. Efficiency pH at 500 ppm ([1]; Table 1, first set of tests): 3.6
Neutral. Efficiency pH at 1000 ppm ([1]; Table 1, first set of tests): 5.9
Salt PPI [2, 5]: 0.12
pKa (pKa of the amine; Table 1, read-out: pKa): 7.7

CN1CCN(C)CC1 [1,4-dimethylpiperazine]
Neutral. Efficiency pH at 250 ppm ([1]; Table 1, first set of tests): 3.7
Neutral. Efficiency pH at 500 ppm ([1]; Table 1, first set of tests): 5.5
Neutral. Efficiency pH at 1000 ppm ([1]; Table 1, first set of tests): 7.6
Neutral. Efficiency pH at 250 ppm [1, 3]: 3.7
Neutral. Efficiency pH at 500 ppm [1, 3]: 5.5
Neutral. Efficiency pH at 1000 ppm [1, 3]: 7.6
Salt PPI [2, 5]: <0.1
Salt PPI [2, 4]: 0.18
pKa (pKa of the amine; Table 1, read-out: pKa): 8.2
Boiling Point (Boiling point): 132 °C
Solubility Oil/Water (Solubility Oil/Water; Table 1): Water
Solubility Oil/Water (Solubility Oil/Water; Table 2): Water
Solubility Oil/Water (Solubility Oil/Water; [6]): Water
Solubility Oil/Water (Solubility Oil/Water; [7]): Water

NCc1ccco1 [Furfurylamine, furfurylamine]
Neutral. Efficiency pH at 250 ppm ([1]; Table 1, first set of tests): 2.6
Neutral. Efficiency pH at 500 ppm ([1]; Table 1, first set of tests): 6.5
Neutral. Efficiency pH at 1000 ppm ([1]; Table 1, first set of tests): 8.5
Salt PPI [2, 5]: 0.38
pKa (pKa of the amine; Table 1, read-out: pKa): 8.89
Solubility Oil/Water (Solubility Oil/Water; Table 1): Water

CN(C)C1CCCCC1 [Dimethylcyclohexylamine, dimethylcyclohexylamine]
Neutral. Efficiency pH at 250 ppm ([1]; Table 1, first set of tests): 1.8
Neutral. Efficiency pH at 500 ppm ([1]; Table 1, first set of tests): 1.9
Neutral. Efficiency pH at 1000 ppm ([1]; Table 1, first set of tests): 5.2
Salt PPI [2, 5]: 0.10
pKa (pKa of the amine; Table 1, read-out: pKa): 10

N [ammonia, reference compound]
Salt PPI ([2]; ammonia salt is the benchmark): 1.0

CN(C)C(C)(C)CO [2-dimethylamino 2-methyl 1-propanol]
pKa (pKa of the amine; Table 2, read-out: pKa): 10.2

CN(C)C [Trimethylamine (TMA), Trimethylamine, reference compound]
Neutral. Efficiency pH at 250 ppm ([1]; Table 1, first set of tests): 2.6
Neutral. Efficiency pH at 500 ppm ([1]; Table 1, first set of tests): 8.0
Neutral. Efficiency pH at 1000 ppm ([1]; Table 1, first set of tests): 8.8
Neutral. Efficiency pH at 250 ppm [1, 3]: 2.6
Neutral. Efficiency pH at 500 ppm [1, 3]: 8.0
Neutral. Efficiency pH at 1000 ppm [1, 3]: 8.8
Salt PPI [2, 5]: 0.10
Salt PPI [2, 4]: 0.10
pKa (pKa of the amine; Table 1, read-out: pKa): 9.76
pKa (pKa of the amine; Table 2): 9.76
Boiling Point (Boiling point): 2.87 °C
Solubility Oil/Water (Solubility Oil/Water; Table 1): Water
Solubility Oil/Water (Solubility Oil/Water; Table 2): Water

CN(C)CN(C)C [N,N,N′,N′-tetramethyldiaminomethane]
Neutral. Efficiency pH at 250 ppm [1, 3]: 7.54
Neutral. Efficiency pH at 500 ppm [1, 3]: 8.87
Neutral. Efficiency pH at 1000 ppm [1, 3]: 9.25
Salt PPI [2, 4]: 0.30

CN1CCOCC1 [N-methylmorpholine (NMM), N-methylmorpholine, reference compound]
Neutral. Efficiency pH at 250 ppm ([1]; Table 1, first set of tests): 2.4
Neutral. Efficiency pH at 500 ppm ([1]; Table 1, first set of tests): 5.4
Neutral. Efficiency pH at 1000 ppm ([1]; Table 1, first set of tests): 6.8
Neutral. Efficiency pH at 250 ppm [1, 3]: 2.4
Neutral. Efficiency pH at 500 ppm [1, 3]: 5.4
Neutral. Efficiency pH at 1000 ppm [1, 3]: 6.8
Salt PPI [2, 5]: 0.18
Salt PPI [2, 4]: 0.18
pKa (pKa of the amine; Table 1, read-out: pKa): 7.1
Boiling Point (Boiling point): 116 °C

CCN(O)CC [Diethylhydroxylamine]
Neutral. Efficiency pH at 250 ppm ([1]; Table 1, first set of tests): 2.4
Neutral. Efficiency pH at 500 ppm ([1]; Table 1, first set of tests): 4.1
Neutral. Efficiency pH at 1000 ppm ([1]; Table 1, first set of tests): 5.0
Salt PPI [2, 5]: <0.1
pKa (pKa of the amine; Table 1, read-out: pKa): 5.61
Solubility Oil/Water (Solubility Oil/Water; Table 1): Water

CCCCN(C)CCCC [N-methyldibutylamine]
Neutral. Efficiency pH at 250 ppm ([1]; Table 1, first set of tests): 1.9
Neutral. Efficiency pH at 500 ppm ([1]; Table 1, first set of tests): 2.0
Neutral. Efficiency pH at 1000 ppm ([1]; Table 1, first set of tests): 5.0
Salt PPI [2, 5]: <0.1
pKa (pKa of the amine; Table 1, read-out: pKa): 10.3

CCCN(C)CCC [N-methyldipropylamine]
Neutral. Efficiency pH at 250 ppm ([1]; Table 1, first set of tests): 2.4
Neutral. Efficiency pH at 500 ppm ([1]; Table 1, first set of tests): 2.8
Neutral. Efficiency pH at 1000 ppm ([1]; Table 1, first set of tests): 5.6
Salt PPI [2, 5]: <0.1
pKa (pKa of the amine; Table 1, read-out: pKa): 10.1
